In assay [1] the target is Tyrosine-protein kinase Fes/Fps (Homo sapiens) (UniProt P07332). Briefly: Inhibition of human recombinant FES at 15 nM related to control ULK1.
Assay [2] deals with Serine/threonine-protein kinase/endoribonuclease IRE1 (Homo sapiens) (UniProt O75460). Briefly: Inhibition of human recombinant IRE1 at 15 nM related to control ULK1.
The target of assay [3] is Serine/threonine-protein kinase PAK 1 (Homo sapiens) (UniProt Q13153). As to the kind of experiment: Inhibition of human recombinant PAK1 at 15 nM in presence of ATP by radiometric assay relative to control.
The target of assay [4] is T1, Tyrosine-protein kinase receptor TYRO3 (Homo sapiens) (UniProt Q06418).
T1 sequence (whole entry): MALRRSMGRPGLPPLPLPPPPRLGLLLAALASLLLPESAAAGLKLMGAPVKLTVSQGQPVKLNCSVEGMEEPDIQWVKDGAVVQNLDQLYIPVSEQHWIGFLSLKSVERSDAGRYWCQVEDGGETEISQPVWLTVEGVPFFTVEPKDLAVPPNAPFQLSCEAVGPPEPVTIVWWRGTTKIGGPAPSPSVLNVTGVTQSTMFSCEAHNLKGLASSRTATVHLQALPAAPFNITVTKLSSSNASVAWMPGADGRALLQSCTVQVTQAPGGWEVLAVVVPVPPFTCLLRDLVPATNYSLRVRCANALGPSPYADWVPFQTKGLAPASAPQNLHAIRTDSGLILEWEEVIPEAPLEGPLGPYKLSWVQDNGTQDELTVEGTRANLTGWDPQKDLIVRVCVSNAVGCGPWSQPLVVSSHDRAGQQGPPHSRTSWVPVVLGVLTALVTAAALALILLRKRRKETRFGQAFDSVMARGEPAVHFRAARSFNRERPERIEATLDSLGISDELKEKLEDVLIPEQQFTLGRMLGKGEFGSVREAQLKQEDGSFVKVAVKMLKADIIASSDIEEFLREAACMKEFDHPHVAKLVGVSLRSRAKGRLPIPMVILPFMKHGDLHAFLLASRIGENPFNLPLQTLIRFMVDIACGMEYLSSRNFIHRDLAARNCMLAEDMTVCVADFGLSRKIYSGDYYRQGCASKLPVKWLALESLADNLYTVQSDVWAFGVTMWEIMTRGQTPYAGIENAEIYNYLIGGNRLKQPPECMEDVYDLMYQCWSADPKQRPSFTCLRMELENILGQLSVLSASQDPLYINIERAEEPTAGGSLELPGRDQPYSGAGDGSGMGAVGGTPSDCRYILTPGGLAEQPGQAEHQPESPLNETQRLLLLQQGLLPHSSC
Briefly: Inhibition of human recombinant TYRO3 at 40 nM in presence of ATP by radiometric assay relative to control.

Assay [5] deals with T2, Dual specificity tyrosine-phosphorylation-regulated kinase 3 (Homo sapiens) (UniProt O43781).
T2 sequence (whole entry): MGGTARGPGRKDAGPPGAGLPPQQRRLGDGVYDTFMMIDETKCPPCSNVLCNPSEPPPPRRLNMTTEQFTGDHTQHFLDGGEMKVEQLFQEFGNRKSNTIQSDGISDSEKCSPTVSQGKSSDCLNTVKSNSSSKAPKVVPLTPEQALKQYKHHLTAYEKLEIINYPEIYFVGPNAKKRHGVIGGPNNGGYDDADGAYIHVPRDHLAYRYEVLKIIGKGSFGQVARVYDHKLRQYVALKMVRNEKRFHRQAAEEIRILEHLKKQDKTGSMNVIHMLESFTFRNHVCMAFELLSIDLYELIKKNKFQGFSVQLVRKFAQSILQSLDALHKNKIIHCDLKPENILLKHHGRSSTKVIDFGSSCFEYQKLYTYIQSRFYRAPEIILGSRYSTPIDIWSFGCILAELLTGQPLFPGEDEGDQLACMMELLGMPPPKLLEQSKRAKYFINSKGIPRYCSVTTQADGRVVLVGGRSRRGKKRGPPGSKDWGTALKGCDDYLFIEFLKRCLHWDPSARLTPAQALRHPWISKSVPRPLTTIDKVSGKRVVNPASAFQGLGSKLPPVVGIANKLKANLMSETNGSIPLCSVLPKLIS
Briefly: Inhibition of human recombinant DYRK3 at 500 nM in presence of ATP by radiometric assay relative to control.

For assay [6], the target named is Fibroblast growth factor receptor 3 (Homo sapiens) (UniProt P22607). Briefly: Inhibition of human recombinant FGFR3 at 500 nM in presence of ATP by radiometric assay relative to control.
In assay [7] the target is T3, Rhodopsin kinase GRK1 (Homo sapiens) (UniProt Q15835).
T3 sequence (whole entry): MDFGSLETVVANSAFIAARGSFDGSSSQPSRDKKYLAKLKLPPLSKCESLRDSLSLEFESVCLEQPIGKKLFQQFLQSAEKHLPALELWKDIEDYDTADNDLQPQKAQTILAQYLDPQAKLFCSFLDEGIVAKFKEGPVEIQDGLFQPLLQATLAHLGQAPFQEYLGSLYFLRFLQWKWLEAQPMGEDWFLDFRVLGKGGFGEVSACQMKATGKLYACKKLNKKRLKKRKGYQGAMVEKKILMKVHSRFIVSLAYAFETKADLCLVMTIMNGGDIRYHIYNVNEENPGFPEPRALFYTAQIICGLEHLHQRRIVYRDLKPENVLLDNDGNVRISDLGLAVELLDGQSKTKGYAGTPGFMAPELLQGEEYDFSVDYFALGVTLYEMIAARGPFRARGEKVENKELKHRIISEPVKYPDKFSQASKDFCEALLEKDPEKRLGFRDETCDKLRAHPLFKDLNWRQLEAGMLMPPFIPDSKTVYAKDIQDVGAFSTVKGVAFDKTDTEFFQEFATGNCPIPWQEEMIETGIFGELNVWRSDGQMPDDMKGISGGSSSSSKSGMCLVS
As to the kind of experiment: Inhibition of human recombinant RHOK at 500 nM in presence of ATP by radiometric assay relative to control.

The target in assay [8] is RAC-alpha serine/threonine-protein kinase (Homo sapiens) (UniProt P31749). Briefly: Inhibition of human recombinant AKT1 at 500 nM related to control ULK1.
Assay [9] addresses Tyrosine-protein kinase Fer (Homo sapiens) (UniProt P16591). As to the kind of experiment: Inhibition of human recombinant FER at 500 nM related to control ULK1.

What is called inhibition is the percentage by which the read-out fell short of the control.

Chain of RAC-alpha serine/threonine-protein kinase (Homo sapiens) (P31749 whole entry): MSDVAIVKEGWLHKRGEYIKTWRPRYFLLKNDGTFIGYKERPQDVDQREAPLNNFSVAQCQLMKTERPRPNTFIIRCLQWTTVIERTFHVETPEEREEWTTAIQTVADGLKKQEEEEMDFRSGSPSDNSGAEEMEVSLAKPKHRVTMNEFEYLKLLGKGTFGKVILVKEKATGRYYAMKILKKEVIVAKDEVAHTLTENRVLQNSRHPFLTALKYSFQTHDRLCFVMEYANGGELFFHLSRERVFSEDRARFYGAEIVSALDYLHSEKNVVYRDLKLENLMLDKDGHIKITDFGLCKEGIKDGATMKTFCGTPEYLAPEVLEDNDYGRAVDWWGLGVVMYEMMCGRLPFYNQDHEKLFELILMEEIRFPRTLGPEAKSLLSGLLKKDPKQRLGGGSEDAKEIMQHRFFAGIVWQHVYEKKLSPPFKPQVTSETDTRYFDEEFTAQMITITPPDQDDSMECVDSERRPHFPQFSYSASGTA
Chain of Serine/threonine-protein kinase PAK 1 (Homo sapiens) (Q13153 whole entry, looked up): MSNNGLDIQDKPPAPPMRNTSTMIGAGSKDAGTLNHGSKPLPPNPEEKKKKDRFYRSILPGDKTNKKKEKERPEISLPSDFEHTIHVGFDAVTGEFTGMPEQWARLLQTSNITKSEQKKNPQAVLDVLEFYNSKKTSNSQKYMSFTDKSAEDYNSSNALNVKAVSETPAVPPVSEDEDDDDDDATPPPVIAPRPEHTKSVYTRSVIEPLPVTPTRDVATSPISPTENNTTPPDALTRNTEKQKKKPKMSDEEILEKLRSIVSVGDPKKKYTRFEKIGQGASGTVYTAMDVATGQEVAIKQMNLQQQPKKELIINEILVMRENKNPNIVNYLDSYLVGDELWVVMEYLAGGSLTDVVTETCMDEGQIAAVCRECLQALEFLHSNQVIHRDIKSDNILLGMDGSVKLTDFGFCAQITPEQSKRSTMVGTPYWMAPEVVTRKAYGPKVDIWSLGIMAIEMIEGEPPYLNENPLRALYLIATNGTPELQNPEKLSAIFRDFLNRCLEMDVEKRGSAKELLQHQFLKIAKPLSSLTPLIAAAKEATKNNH
Chain of Fibroblast growth factor receptor 3 (Homo sapiens) (P22607 23-806 limits assumed): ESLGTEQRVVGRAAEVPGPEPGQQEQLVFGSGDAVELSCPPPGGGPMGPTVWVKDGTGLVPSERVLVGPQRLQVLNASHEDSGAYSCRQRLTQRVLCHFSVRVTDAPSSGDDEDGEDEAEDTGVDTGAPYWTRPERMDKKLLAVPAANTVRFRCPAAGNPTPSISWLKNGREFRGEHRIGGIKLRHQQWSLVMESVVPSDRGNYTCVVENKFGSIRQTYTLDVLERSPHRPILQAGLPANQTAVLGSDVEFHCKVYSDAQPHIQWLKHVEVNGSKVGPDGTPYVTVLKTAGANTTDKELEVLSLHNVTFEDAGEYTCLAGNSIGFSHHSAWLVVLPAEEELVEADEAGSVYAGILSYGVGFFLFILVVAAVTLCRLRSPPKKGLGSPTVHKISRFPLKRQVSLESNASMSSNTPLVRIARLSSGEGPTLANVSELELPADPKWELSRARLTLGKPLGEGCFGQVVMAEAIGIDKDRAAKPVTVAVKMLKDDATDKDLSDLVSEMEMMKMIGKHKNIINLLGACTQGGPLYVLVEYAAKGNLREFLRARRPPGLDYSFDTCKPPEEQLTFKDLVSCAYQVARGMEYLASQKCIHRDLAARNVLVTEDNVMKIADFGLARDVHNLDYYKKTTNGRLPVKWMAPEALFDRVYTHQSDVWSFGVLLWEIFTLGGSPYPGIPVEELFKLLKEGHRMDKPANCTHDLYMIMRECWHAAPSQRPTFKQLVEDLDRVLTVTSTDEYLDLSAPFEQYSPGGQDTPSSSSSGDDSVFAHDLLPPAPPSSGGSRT
Chain of Tyrosine-protein kinase Fes/Fps (Homo sapiens) (P07332 whole entry): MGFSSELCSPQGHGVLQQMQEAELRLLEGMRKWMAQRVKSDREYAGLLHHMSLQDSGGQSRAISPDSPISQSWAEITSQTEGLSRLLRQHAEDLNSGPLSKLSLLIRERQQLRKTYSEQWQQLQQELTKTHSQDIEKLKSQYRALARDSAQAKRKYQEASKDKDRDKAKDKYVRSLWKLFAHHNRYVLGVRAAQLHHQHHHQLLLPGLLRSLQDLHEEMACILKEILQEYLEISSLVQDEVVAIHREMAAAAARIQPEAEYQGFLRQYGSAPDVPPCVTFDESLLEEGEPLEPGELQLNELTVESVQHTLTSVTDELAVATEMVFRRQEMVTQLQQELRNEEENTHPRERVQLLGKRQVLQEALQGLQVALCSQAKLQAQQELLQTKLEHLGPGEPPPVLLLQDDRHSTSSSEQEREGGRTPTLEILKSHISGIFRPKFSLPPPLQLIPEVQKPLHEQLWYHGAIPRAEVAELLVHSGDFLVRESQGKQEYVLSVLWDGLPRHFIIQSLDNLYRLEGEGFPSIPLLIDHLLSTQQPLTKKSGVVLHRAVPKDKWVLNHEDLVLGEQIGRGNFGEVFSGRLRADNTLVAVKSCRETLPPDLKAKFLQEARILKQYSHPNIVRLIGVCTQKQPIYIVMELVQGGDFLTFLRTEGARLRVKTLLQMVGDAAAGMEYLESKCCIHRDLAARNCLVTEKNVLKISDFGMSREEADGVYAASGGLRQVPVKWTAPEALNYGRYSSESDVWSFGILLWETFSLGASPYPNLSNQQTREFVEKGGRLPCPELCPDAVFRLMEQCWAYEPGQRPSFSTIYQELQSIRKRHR
Chain of Tyrosine-protein kinase Fer (Homo sapiens) (P16591 whole entry, looked up): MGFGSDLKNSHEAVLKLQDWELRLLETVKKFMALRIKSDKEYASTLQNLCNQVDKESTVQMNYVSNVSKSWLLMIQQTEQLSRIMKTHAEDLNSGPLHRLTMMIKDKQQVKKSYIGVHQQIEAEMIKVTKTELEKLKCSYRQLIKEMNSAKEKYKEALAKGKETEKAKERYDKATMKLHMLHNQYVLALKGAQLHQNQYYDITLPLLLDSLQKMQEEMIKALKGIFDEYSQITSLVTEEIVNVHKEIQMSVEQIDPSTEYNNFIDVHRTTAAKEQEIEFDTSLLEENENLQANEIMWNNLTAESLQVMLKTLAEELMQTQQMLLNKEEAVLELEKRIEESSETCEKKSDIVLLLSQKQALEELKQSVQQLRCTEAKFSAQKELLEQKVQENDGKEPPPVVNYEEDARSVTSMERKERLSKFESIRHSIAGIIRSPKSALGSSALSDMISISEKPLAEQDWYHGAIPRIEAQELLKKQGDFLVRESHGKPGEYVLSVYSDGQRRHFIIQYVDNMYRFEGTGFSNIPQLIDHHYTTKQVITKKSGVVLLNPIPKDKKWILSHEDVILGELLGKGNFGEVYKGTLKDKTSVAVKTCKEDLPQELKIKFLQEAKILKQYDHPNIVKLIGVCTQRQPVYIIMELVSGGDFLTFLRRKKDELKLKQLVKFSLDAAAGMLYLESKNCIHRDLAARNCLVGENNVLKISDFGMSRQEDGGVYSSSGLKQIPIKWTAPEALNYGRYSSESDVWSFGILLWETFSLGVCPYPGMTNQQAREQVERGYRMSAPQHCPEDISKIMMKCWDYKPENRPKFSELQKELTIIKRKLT
Chain of Serine/threonine-protein kinase/endoribonuclease IRE1 (Homo sapiens) (O75460 19-977 limits assumed): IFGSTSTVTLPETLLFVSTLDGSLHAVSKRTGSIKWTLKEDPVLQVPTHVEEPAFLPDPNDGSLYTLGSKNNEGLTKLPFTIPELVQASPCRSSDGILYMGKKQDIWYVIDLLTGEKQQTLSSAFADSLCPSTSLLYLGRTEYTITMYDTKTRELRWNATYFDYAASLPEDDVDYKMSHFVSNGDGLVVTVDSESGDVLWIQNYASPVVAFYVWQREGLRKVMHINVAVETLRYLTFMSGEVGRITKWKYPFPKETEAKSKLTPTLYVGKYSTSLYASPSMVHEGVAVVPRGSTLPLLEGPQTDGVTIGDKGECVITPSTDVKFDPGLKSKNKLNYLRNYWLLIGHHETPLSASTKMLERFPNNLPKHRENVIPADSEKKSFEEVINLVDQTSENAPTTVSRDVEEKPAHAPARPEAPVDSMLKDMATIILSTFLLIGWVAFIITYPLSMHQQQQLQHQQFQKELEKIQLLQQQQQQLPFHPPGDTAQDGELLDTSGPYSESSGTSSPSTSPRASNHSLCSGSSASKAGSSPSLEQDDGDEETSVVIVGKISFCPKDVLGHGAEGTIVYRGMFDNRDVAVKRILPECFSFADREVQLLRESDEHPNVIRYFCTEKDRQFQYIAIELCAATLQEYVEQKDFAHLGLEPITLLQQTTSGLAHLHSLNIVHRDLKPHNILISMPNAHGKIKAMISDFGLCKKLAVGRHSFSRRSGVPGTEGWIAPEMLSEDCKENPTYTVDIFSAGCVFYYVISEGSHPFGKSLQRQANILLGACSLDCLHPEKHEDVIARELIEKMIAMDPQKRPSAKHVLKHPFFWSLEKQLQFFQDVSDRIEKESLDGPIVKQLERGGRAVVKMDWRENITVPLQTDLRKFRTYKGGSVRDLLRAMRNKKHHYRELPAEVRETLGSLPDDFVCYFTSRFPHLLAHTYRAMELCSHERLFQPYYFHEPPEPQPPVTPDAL

In the case of `CC(C)[C@H](NC(=O)c1cc(-c2cnn3cc(-c4ccc(OCCN5CCCCC5)cc4)cnc23)cs1)C(F)(F)F`, the fold change (FC) in assay [1] and in assay [2] was 0 throughout. In assay [3], the inhibition was 0%.

Take `O=C(N[C@@H](C1CC1)C(F)(F)F)c1cc(-c2cnn3cc(-c4ccc(F)cc4)cnc23)cs1`: the inhibition in assay [4] turned out to be 0%.

Turning to `CNC(=O)c1ccccc1Oc1nc(Nc2cc(OC)c(OC)c(OC)c2)ncc1Br`, the values for the inhibition in assay [5], in [6] and in [7] were 0%, 42% and 0%, respectively. The fold change (FC) in [8] and in [9] was 0 in each case.

Source of the values: ChEMBL document CHEMBL5653631, “A Potent and Selective ULK1 Inhibitor Suppresses Autophagy and Sensitizes Cancer Cells to Nutrient Stress” (iScience, 2018).
